Measurements taken from patent US20240350481A1, “USE OF N-MYRISTOYL TRANSFERASE (NMT) INHIBITORS IN THE TREATMENT OF CANCER, AUTOIMMUNE DISORDERS, AND INFLAMMATORY DISORDERS” (PACYLEX PHARMACEUTICALS INC., priority 2020, published 2024).
Like-named read-outs stand apart in the source and are kept apart here.

Legend:
BL2 and IM9 cells = assay: Calcein viability, PCLX-001 vs dasatinib and ibrutinib; type: cell-based
Procedure: Calcein assay consists of measuring the cell viability ratio (live cells/total cells and expressed as % viability). Cells were stained with the Nuclear-ID Blue/Red cell viability reagent (GFP-certified, Enzo Life Sciences) to identify total cells, and dead cells while live cells were stained with Calcein AM (Life Technologies) according to manufacturer's instructions. Cell count was performed using a Cytation 5 Cell Imaging Multi-Mode Reader (Biotek Instruments, Inc.) and analysed by Biotek Gen5 Data Analysis software (version 2.09).

[1] = rats; cited from earlier work
[2] = system: peripheral blood mononuclear cells (PBMCs); assay: PBMC viability assay; type: cell-based, human; details: 96 hr
Procedure: 2 healthy human research volunteers were recruited for PBMC and lymphocytes isolation from a 20 ml blood collection (patient #1: no diagnosis, no treatment; patient #2: no diagnosis, no treatment). Study protocol was approved by the Health Research Ethics Board of Alberta Cancer Committee (Study title: Evaluations of Fatty AcylTransferases (FATs) in fresh blood and blood forming cells; HREBA.CC-17-0624).
Mononuclear cells were isolated from peripheral blood by density gradient centrifugation using Ficoll-Paque (GE Healthcare, PA, USA). Lymphocytes were isolated from whole blood samples using EasySep™ lymphocyte isolation kit (Stemcell Technologies, Vancouver, BC, Canada) as per manufacturer's instructions. PBMC and lymphocytes were cultured in RPMI medium with 10% FBS, 100 U/ml penicillin, 0.1 mg/ml streptomycin. Cells were plated at a concentration of 2×10^6 cells/ml.

[3] = Toxicology in DOHH2 xenograft mice; details: for Reticulocyte % / Absolute Basophil cells / Absolute Eosinophil cells / Absolute Monocyte cells / Absolute Neutrophil cells / Absolute Lymphocyte cells / WBC / MPV / RBC / Hemoglobin / RDW % / MCH / MCHC / Hematocrit % / MCV / Platelets / Aspartate Transaminase / Bilirubin / Creatine PhosphoKinase / Creatinine: DOHH2 xenograft; for Absolute Basophil cells / Absolute Eosinophil cells: normal [0-0.2]; for Absolute Monocyte cells: normal [0-0.4]; for Absolute Neutrophil cells: normal [0.1-2.4]; for Absolute Lymphocyte cells: normal [0.9-9.3]; for WBC: normal [1.8-10.7]; for MPV: normal [5-20]; for RBC: normal [6.36-9.42]; for Hemoglobin: normal [11-15.1]; for RDW %: normal [12.4-27]; for MCH: normal [14.1-19.3]; for MCHC: normal [30.2-34.2]; for Hematocrit %: normal [35.1-45.4]; for MCV: normal [45.4-60.3]; for Platelets: normal [592-2972]; for Aspartate Transaminase / Bilirubin / Creatine PhosphoKinase / Creatinine: mean ± SEM, n = 3
Procedure: Mice were observed daily for clinical signs of toxicity and effects on body weight. After the last dose, three mice/group were euthanized and necropsied. At euthanasia, blood samples were taken for hematology analyses and to measure AST and CK activities and bilirubin and creatinine concentrations. At necropsy, samples of samples of femur, both kidneys, liver, small intestine, and injection site were taken and fixed.
The dose volume was 10 mL/kg. At the end of the two-to three-week dosing period, mice were euthanized and three/group were necropsied. Mice that died or were euthanized early for humane reasons also were necropsied. In life, mice were monitored regularly and weighed daily, and tumors were measured with digital Vernier calipers (Mitutoyo) every other day. Tumor volume was calculated as length (mm)×width (mm)2/2; length and width were the longest and shortest diameters, respectively. At euthanasia, at the end of the dosing period blood samples were taken for hematology analyses and clinical chemistry analyses that included AST and CK activities and bilirubin and creatinine concentrations (plus ALT activity and BUN concentration in the Jackson Laboratory study). At necropsy, samples of femur, both kidneys, liver, small intestine, and injection site were collected and fixed. These were subsequently processed and examined by light microscopy for histopathologic findings. Also at necropsy, the tumors were removed and divided in two. One piece was fixed in 10% neutral buffered formalin for 24 h at room temperature and embedded in paraffin; the other was snap frozen for RNA and protein analysis. Tumor growth inhibition (TGI) for all xenograft experiments was calculated following the formula:

EGFP-N-Ras = assay: Palmitoylation of EGFP-N-Ras in COS-7 cells; type: cell-based; details: 10 μM
Procedure: The cells pre-treated with inhibitors were then labelled for 4 hrs with 100 μM Alkyne-C16. EGFP-tagged constructs were immunoprecipitated as described and reacted with azido-biotin using click chemistry. Biotinylated-palmitoylated proteins were detected using neutravidin-HRP conjugate and ECL. […] All western blots shown are representative of three independent experiments.

BL2 cells = assay: Click chemistry, total protein myristoylation; type: cell-based; details: 1 hr treatment
Procedure: Protein from the resulting cell lysates were reacted with 100 μM azido-biotin using click chemistry and processed as described in Yap et al.^47 and Perinpanayagam et al.^33

[4] = dogs; cited from earlier work
[5] = c2, head missing (per Table 4: PCLX-001 10 mg/kg/day)
[6] = c3, head missing (per Table 4: PCLX-001 20 mg/kg/day)
[7] = c4, head missing (per Table 4: PCLX-001 50 mg/kg/day Interm.)
[8] = c5, head missing (per Table 4: PCLX-001 50 mg/kg/day)

Cc1c(N[S+](=O)([O-])c2c(Cl)cc(-c3ccnc(N4CCNCC4)c3)cc2Cl)c(CC(C)C)nn1C [PCLX-001]
cell death (BL2 and IM9 cells; BL2 cells, 0.1 and 1.0 μM, 48 hours): less than 25% | viability of treated cells (BL2 and IM9 cells; at concentrations that are becoming cytotoxic): at least 75% | toxicity at high dose levels [1]: hematopoietic toxicity | decrease in PBMC survival ([2]; 0.1 μM): ~50% | concentration endured by the surviving PBMCs [2]: ≤ 10 µM | neutrophil and monocyte counts ([3]; 50 mg/kg daily): lower than normal in all three mice | RBC counts ([3]; 50 mg/kg every other day): lower than normal in all three mice | femoral bone marrow histopathology ([3]; 50 mg/kg groups): no histopathologic findings | Reticulocyte % ([3]; PCLX-001 10 mg/kg/day): 8.08 ± 1.58% | Absolute Basophil cells ([3]; PCLX-001 10 mg/kg/day): 0.01 ± 0 K/ul | Absolute Eosinophil cells ([3]; PCLX-001 10 mg/kg/day): 0.05 ± 0.02 K/ul | Absolute Monocyte cells ([3]; PCLX-001 10 mg/kg/day): 0.52 ± 0.06 K/ul | Absolute Neutrophil cells ([3]; PCLX-001 10 mg/kg/day): 4.89 ± 0.34 K/ul | Absolute Lymphocyte cells ([3]; PCLX-001 10 mg/kg/day): 0.83 ± ? .19 K/ul | WBC ([3]; PCLX-001 10 mg/kg/day): 6.3 ± 0.12 K/ul | MPV ([3]; PCLX-001 10 mg/kg/day): 6.77 ± 0.18 fL | RBC ([3]; PCLX-001 10 mg/kg/day): 9.45 ± 0.1 M/ul | Hemoglobin ([3]; PCLX-001 10 mg/kg/day): 14.13 ± 0.18 g/dL | RDW % ([3]; PCLX-001 10 mg/kg/day): 25.97 ± 0.46% | MCH ([3]; PCLX-001 10 mg/kg/day): 14.93 ± 0.03 pg | MCHC ([3]; PCLX-001 10 mg/kg/day): 32.73 ± 0.07 g/dL | Hematocrit % ([3]; PCLX-001 10 mg/kg/day): 43.2 ± 0.61% | MCV ([3]; PCLX-001 10 mg/kg/day): 45.7 ± 0.2 fL | Platelets ([3]; PCLX-001 10 mg/kg/day): 1490 ± 91.31 K/uL | Reticulocyte % ([3]; PCLX-001 20 mg/kg/day): 7.21 ± 0.49% | Absolute Basophil cells ([3]; PCLX-001 20 mg/kg/day): 0.01 ± 0 K/ul | Absolute Eosinophil cells ([3]; PCLX-001 20 mg/kg/day): 0.02 ± 0.01 K/ul | Absolute Neutrophil cells ([3]; PCLX-001 20 mg/kg/day): 3.94 ± 0.94 K/ul | Absolute Lymphocyte cells ([3]; PCLX-001 20 mg/kg/day): 0.84 ± ? .15 K/ul | WBC ([3]; PCLX-001 20 mg/kg/day): 5.41 ± 1.05 K/ul | MPV ([3]; PCLX-001 20 mg/kg/day): 7.63 ± 0.23 fL | RBC ([3]; PCLX-001 20 mg/kg/day): 9.03 ± 0.32 M/ul | Hemoglobin ([3]; PCLX-001 20 mg/kg/day): 13.97 ± 0.44 g/dL | RDW % ([3]; PCLX-001 20 mg/kg/day): 25.13 ± 0.65% | MCH ([3]; PCLX-001 20 mg/kg/day): 15.43 ± 0.3 pg | MCHC ([3]; PCLX-001 20 mg/kg/day): 33.03 ± 0.22 g/dL | Hematocrit % ([3]; PCLX-001 20 mg/kg/day): 42.33 ± 1.48% | MCV ([3]; PCLX-001 20 mg/kg/day): 46.9 ± 0.65 fL | Platelets ([3]; PCLX-001 20 mg/kg/day): 1234.7 ± 38.49 K/uL | Reticulocyte % ([3]; PCLX-001 50 mg/kg/day): 6.7 ± 0.3% | Reticulocyte % ([3]; PCLX-001 50 mg/kg/day Interm.): 13.28 ± 6.74% | Absolute Basophil cells ([3]; PCLX-001 50 mg/kg/day Interm.): 0 ± 0 K/ul | Absolute Eosinophil cells ([3]; PCLX-001 50 mg/kg/day Interm.): 0.05 ± 0.03 K/ul | Absolute Monocyte cells ([3]; PCLX-001 50 mg/kg/day Interm.): 0.91 ± 0.14 K/ul | Absolute Lymphocyte cells ([3]; PCLX-001 50 mg/kg/day Interm.): 1.51 ± 0.47 K/ul | WBC ([3]; PCLX-001 50 mg/kg/day Interm.): 5.94 ± 1.19 K/ul | MPV ([3]; PCLX-001 50 mg/kg/day Interm.): 7.17 ± 0.09 fL | RBC ([3]; PCLX-001 50 mg/kg/day Interm.): 8.07 ± 0.12 M/ul | Hemoglobin ([3]; PCLX-001 50 mg/kg/day Interm.): 12.6 ± 0.15 g/dL | RDW % ([3]; PCLX-001 50 mg/kg/day Interm.): 27.2 ± 1.82% | MCH ([3]; PCLX-001 50 mg/kg/day Interm.): 15.63 ± 0.12 pg | MCHC ([3]; PCLX-001 50 mg/kg/day Interm.): 31.90 ± 1.01 g/dL | Hematocrit % ([3]; PCLX-001 50 mg/kg/day Interm.): 39.53 ± 0.84% | MCV ([3]; PCLX-001 50 mg/kg/day Interm.): 49.07 ± 1.72 fL | Platelets ([3]; PCLX-001 50 mg/kg/day Interm.): 1673.7 ± 309.81 K/uL | Absolute Basophil cells ([3]; PCLX-001 50 mg/kg/day): 0 ± 0 K/ul | Absolute Eosinophil cells ([3]; PCLX-001 50 mg/kg/day): 0.01 ± 0.01 K/ul | Absolute Monocyte cells ([3]; PCLX-001 50 mg/kg/day): 0.19 ± 0.06 K/ul | Absolute Neutrophil cells ([3]; PCLX-001 50 mg/kg/day): 1.45 ± 0.22 K/ul | Absolute Lymphocyte cells ([3]; PCLX-001 50 mg/kg/day): 0.23 ± 0.06 K/ul | WBC ([3]; PCLX-001 50 mg/kg/day): 1.89 ± 0.31 K/ul | MPV ([3]; PCLX-001 50 mg/kg/day): 7 ± 0.3 fL | RBC ([3]; PCLX-001 50 mg/kg/day): 9.3 ± 0.17 M/ul | Hemoglobin ([3]; PCLX-001 50 mg/kg/day): 14.77 ± 0.23 g/dL | RDW % ([3]; PCLX-001 50 mg/kg/day): 25.8 ± 0.3% | MCH ([3]; PCLX-001 50 mg/kg/day): 15.9 ± 0.1 pg | MCHC ([3]; PCLX-001 50 mg/kg/day): 34.1 ± 0.1 g/dL | Hematocrit % ([3]; PCLX-001 50 mg/kg/day): 43.3 ± 0.7% | MCV ([3]; PCLX-001 50 mg/kg/day): 46.6 ± 0.2 fL | Platelets ([3]; PCLX-001 50 mg/kg/day): 900.7 ± 60.8 K/uL | Aspartate Transaminase [3, 5]: 104.33 ± 27.34 U/L | Bilirubin [3, 5]: 0.1 ± 0 mg/dL | Creatine PhosphoKinase [3, 5]: 81.7 ± 25.1 U/L | Creatinine [3, 5]: 0.3 ± 0.067 mg/dL | Aspartate Transaminase [3, 6]: 132.67 ± 55.29 U/L | Bilirubin [3, 6]: 0.1 ± 0 mg/dL | Creatine PhosphoKinase [3, 6]: 54 ± 14.7 U/L | Creatinine [3, 6]: 0.3 ± 0 mg/dL | Aspartate Transaminase [3, 7]: 125.67 ± 68.18 U/L | Bilirubin [3, 7]: 0.1 ± 0 mg/dL | Creatine PhosphoKinase [3, 7]: 92.3 ± 29.5 U/L | Creatinine [3, 7]: 0.3 ± 0 mg/dL | Aspartate Transaminase [3, 8]: 279.7 ± 34.17 U/L | Bilirubin [3, 8]: 0.1 ± 0 mg/dL | Creatine PhosphoKinase [3, 8]: 266.67 ± 69.9 U/L | Creatinine [3, 8]: 0.2 ± 0 mg/dL | Noteworthy findings after last dose ([3]; Group 2, Low-dose, 10 mg/kg): None | Noteworthy findings after last dose ([3]; Group 4, Mid-dose, 20 mg/kg): None | mortality ([3]; any dose): does not increase mortality | palmitoylation of EGFP-N-Ras (EGFP-N-Ras): does not inhibit | concentration required to decrease myristoylation (BL2 cells): ~0.1 µM | toxicity at high dose levels [4]: hematopoietic toxicity
